Measured values: patent publication US8115014B2, “Ethynylindole compounds” (ONO Pharmaceuticals, Co., Ltd., priority 2008, dated 2012)
pIC50: −log10 of the molar value.

What was measured:
human cysLT2 receptor = biological target: T1, human cysLT2 receptor (Homo sapiens, UniProt Q9NS75); experiment: Effects of compounds on LTD4-induced increases in intracellular calcium levels, HEK293 cells expressing the human cysLT2 receptor; assay type: cell-based; settings: 100 nM LTD4, compound applied 30 minutes prior, read-out: IC50 (50% inhibitory concentration), LTD4-induced intracellular calcium influx
T1 construct: expressed in transfected cells; host or cells: HEK293 cells
T1 sequence (Q9NS75 1-346): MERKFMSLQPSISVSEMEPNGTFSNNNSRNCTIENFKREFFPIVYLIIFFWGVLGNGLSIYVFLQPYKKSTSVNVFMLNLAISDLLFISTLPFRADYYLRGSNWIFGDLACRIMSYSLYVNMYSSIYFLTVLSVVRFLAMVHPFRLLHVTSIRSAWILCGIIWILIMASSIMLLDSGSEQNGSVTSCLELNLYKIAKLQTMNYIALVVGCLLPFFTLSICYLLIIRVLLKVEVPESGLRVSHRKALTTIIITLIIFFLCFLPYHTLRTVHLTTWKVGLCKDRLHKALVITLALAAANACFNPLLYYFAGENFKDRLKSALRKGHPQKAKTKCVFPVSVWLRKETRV
Procedure: (§1) The cells were incubated in the culture medium containing 7.5 μM Fura2-AM, 20 mM 2-[4-(2-hydroxyethyl)-1-piperazinyl]ethanesulfonic acid (HEPES) and 2.5 mM probenecid, at 37° C. for about 60 minutes. The Fura2-AM-loaded cells were washed once with assay buffer (Hank's buffer containing 20 mM HEPES), and the LTD4-induced intracellular calcium influx was measured using a FDSS2000 (manufactured by Hamamatsu Photonics K.K.). The compounds of the present invention were applied 30 minutes prior to LTD4 stimulation, and time-course changes of the response provoked by 100 nM of LTD4 was measured over 150 seconds.

human cysLT1 receptor = biological target: T2, human cysLT1 receptor (Homo sapiens, UniProt Q9Y271); experiment: Effects of compounds on LTD4-induced increase in intracellular calcium levels, CHO cells expressing the human cysLT1 receptor; assay type: cell-based; settings: 100 nM LTD4, compound applied 30 minutes prior, read-out: IC50 (50% inhibitory concentration), LTD4-induced intracellular calcium influx
T2 construct: expressed in transfected cells; host or cells: Chinese hamster ovary (CHO) cells
T2 sequence (Q9Y271 1-337): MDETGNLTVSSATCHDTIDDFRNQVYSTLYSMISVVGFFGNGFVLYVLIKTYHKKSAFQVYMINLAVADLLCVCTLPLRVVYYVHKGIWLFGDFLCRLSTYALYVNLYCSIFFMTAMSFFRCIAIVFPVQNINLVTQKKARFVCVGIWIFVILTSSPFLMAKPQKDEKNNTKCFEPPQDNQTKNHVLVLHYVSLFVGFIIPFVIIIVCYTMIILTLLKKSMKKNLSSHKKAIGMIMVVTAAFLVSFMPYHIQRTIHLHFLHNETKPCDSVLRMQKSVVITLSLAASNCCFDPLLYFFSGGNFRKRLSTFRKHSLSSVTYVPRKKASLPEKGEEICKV
Procedure: as §1, with “Chinese hamster ovary (CHO) cells expressing the human cysLT1 receptor were seeded at a density of 0.4×10^5 cells/well into a 96-well plate and cultured in an F-12 medium at 37° C. in the presence of 5% CO2 for 24 hours. The cells” for “The cells”

Structure (SMILES)	pIC50 (human cysLT2 receptor)	pIC50 (human cysLT1 receptor)
Cc1c(CCCC(=O)O)c2cccc(C#Cc3ccc(OCCCCc4c(F)c(F)c(F)c(F)c4F)cc3)c2n1CCCC(=O)O [Example 9, 4,4′-[2-methyl-7-({4-[4-(pentafluorophenyl)butoxy]phenyl}ethynyl)-1H-indole-1,3-diyl]dibutanoic Acid]	8.55	8.96
Cc1c(CCCC(=O)O)c2cccc(C#Cc3ccc(OCCCCc4cc(F)c(F)c(F)c4F)cc3)c2n1CC(=O)O [Example 11, 4-[1-(carboxymethyl)-2-methyl-7-({4-[4-(2,3,4,5-tetrafluorophenyl)butoxy]phenyl}ethynyl)-1H-indol-3-yl]butanoic Acid]	9.11	9.68
Cc1c(Cl)cccc1CCCCOc1ccc(C#Cc2cccc3c(CC4(CC(=O)O)CC4)c(C)n(CC(=O)O)c23)cc1 [Example 21 (1), (1-{[1-(carboxymethyl)-7-({4-[4-(3-chloro-2-methylphenyl)butoxy]phenyl}ethynyl)-2-methyl-1H-indol-3-yl]methyl}cyclopropyl)acetic Acid]	8.68	9.80
Cc1c(F)cccc1CCCCOc1ccc(C#Cc2cccc3c(CC4(CC(=O)O)CC4)c(C)n(CC(=O)O)c23)cc1 [Example 21 (2), [3-{[1-(carboxymethyl)cyclopropyl]methyl}-7-({4-[4-(3-fluoro-2-methylphenyl)butoxy]phenyl}ethynyl)-2-methyl-1H-indol-1-yl]acetic Acid]	8.54	9.62
